Laboratory results reported in patent US20240199648A1, “MAP4K1 INHIBITORS” (Blueprint Medicines Corporation, priority 2021, published 2024).

Columns and labels:
MAP4K1 (HPK1) = target: T1, MAP4K1 (HPK1) (Homo sapiens, UniProt Q92918); test: Inhibition of MAP4K1 biochemical enzymatic activity (EZReader 2 electrophoretic mobility shift assay); settings: HPK1 (Invitrogen), S6K2tide 1.5 μM, 120 min; ATP 26 μM or 1000 μM (not stated which)
T1 construct: purchased Invitrogen
Description: MAP4K1 (HPK1) and relevant off-target enzymatic activity was monitored using the Perkin Elmer electrophoretic mobility shift technology platform—the EZReader 2. […] Within the linear, steady-state phase of the kinase enzymatic reaction, the mixed pool of phosphorylated (product) and non-phosphorylated (substrate) peptides was passed through the microfluidic system of the PerkinElmer EZ Reader 2, under an applied electric potential difference. The presence of the phosphate group on the product peptide provided a difference in mass and charge between that of the substrate peptide, resulting in a separation of the substrate and product pools in the sample (Perrin et al. 2010). As the product and substrate peptide mixture passes the lasers within the instrument, these pools are detected (λex=488 nm, λem=568 nm) and resolved as separate peaks. The ratio between these peaks reflects the activity of the compound at that concentration, in that well, under those conditions.
Inhibitors were dissolved in 100% DMSO at a stock concentration of 10 mM. A 100×, 10-point, 4-fold serial dilution of each inhibitor was created in 100% DMSO either manually or on a Hamilton STAR liquid handler, starting at a relevant concentration, usually 1 mM. A volume of 0.130 μL of each concentration was transferred to the relevant wells of a 384-well plate (Greiner 781 201) in diplicate using a TTPLabtech Mosquito nano-litre dispenser. Using a Multidrop Combi, the remaining constituents of the kinase reaction were added to the 130 nL of dosed compound as follows (see table below for final reaction details):
Enzyme activity assays at the ^APPKM for ATP or 1 mM ATP: In each well of a 384-well plate, 0.1-15 nM of untreated enzyme was incubated in a total of 13 μL of buffer (100 mM HEPES pH 7.5, 0.015% Brij 35, 10 mM MgCl2, 1 mM DTT) with 1.5 μM fluorescent peptid and 20-1000 μM ATP, at 25° C., for 60-180 minutes in the presence or absence of a dosed concentration series of compound (1% DMSO final concentration). The kinase reactions were stopped by the addition of 70 μl of Stop buffer (100 mM HEPES pH 7.5, 0.015% Brij 35, 35 mM EDTA and 0.2% of Coating Reagent 3 (Caliper Lifesciences)). The plates were read on a Caliper EZReader 2 as described above.

Primary T Cell = test: T cell enhancement of cytokines: IL2 measurement (HTRF) in expanded CD3+ T cells stimulated with anti-CD3/anti-CD28; assay type: cell-based, human; settings: Homo sapiens, T-cell, 24 h, plate-bound anti-CD3 and soluble anti-CD28, 24 h, read-out: IL-2 Primary T Cell EC50
Protocol: T cells are isolated from whole blood of healthy donors by immunomagnetic negative selection following manufacture's protocol (StemCell Technologies, human T cell isolation kit). Purity of isolated cells is assessed by flow cytometry and yields 95-98% CD3^+ T cells. For expansion of T cells, 1×10^6 cells/well are plated in serum free cell expansion media (ThermoFisher) containing 30U of recombinant human IL2 (R&D) and stimulated with 25 ul of CD3/CD28 beads (Invitrogen) in 24 well plates for 3-4 days. T cells are then expanded in 175 cm flasks and maintained at a cell density of 1 to 2.5×10^6 cells/ml days by addition of ⅔ of fresh media every 2-3 days. After 10-14 days, cells are frozen in BamBanker freezing media (Thermo) and stored in liquid nitrogen.
For IL2 measurement, expanded CD3+ T cells are dispensed at 100K cells/well (cultured in X-VIVO 10 Serum-free media) and are stimulated with plate-bound anti-CD3 and soluble anti-CD28 in the presence of vehicle or compound of the disclosure at various concentrations for 24 h. As outlined in the manufacturer's protocol (Cisbio), 16 μL of conditioned media is transferred to a white 384-well low volume plate. Following a 24 h incubation with the anti-IL2 antibodies, the homogenous time resolved fluorescence (HTRF) is measured.

T1 sequence (Q92918 whole entry): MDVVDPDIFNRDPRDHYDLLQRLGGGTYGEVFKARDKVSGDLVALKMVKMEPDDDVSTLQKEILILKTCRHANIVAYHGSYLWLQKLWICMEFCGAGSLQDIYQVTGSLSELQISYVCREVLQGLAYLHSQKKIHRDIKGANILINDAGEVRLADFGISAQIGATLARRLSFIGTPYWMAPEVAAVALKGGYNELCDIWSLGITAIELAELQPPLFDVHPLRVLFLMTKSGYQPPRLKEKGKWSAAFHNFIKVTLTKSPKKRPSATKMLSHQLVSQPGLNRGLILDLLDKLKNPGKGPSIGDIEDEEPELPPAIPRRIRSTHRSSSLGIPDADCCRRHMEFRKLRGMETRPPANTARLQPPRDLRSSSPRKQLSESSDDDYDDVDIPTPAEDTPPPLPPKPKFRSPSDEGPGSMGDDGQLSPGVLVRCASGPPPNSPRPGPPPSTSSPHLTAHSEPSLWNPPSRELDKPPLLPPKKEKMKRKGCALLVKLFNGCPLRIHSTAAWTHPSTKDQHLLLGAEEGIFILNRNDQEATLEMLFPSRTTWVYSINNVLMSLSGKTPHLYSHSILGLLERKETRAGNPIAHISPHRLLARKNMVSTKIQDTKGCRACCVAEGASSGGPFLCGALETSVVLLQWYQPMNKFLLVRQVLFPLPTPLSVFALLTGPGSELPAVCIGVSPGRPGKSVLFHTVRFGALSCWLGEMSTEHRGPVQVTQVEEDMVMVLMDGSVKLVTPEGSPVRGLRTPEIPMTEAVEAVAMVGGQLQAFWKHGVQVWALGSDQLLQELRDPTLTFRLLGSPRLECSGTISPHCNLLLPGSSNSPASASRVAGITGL

Compound	IC50 (MAP4K1 (HPK1)) [nM]	EC50 (Primary T Cell) [nM]
CC[C@@H](N)c1cnc(OC2CN(C(=O)[C@@H]3C[C@@H]3F)C2)c2cnc(Nc3ccc4c(n3)[C@@H](C)C(C)(C)OC4=O)cc12 (single isomer, unassigned) [Compound 11, (R)-2-((5-((R)-1-aminopropyl)-8-((1-((1S,2S)-2-fluorocyclopropane-1-carbonyl)azetidin-3-yl)oxy)-2,7-naphthyridin-3-yl)amino)-7,7,8-trimethyl-7,8-dihydro-5H-pyrano[4,3-b]pyridin-5-one or (R)-2-((5-((S)-1-aminopropyl)-8-((1-((1S,2S)-2-fluorocyclopropane-1-carbonyl)azetidin-3-yl)oxy)-2,7-naphthyridin-3-yl)amino)-7,7,8-trimethyl-7,8-dihydro-5H-pyrano[4,3-b]pyridin-5-one]	0.63	38.6
CC(C)(N)c1cnc(OC2CN(C(=O)C3CC3)C2)c2cnc(Nc3ccc4c(n3)C3(CC3)C(C)(C)OC4=O)cc12 [Compound 63]	0.19	23.2
C[C@@H]1OC(=O)c2ccc(Nc3cc4c(C(C)(C)N)cnc(OC5CN(C(=O)C6COC6)C5)c4cn3)nc2[C@H]1C [Compound 54]	0.21	29.3
C[C@@H]1OC(=O)c2ccc(Nc3cc4c(C(C)(C)N)cnc(OC5CN(C(=O)C6CC6)C5)c4cn3)nc2[C@H]1C [Compound 5]	0.17	17.7
CC(=O)N1CC(Oc2ccc(C(C)(C)N)c3cc(Nc4ccc5c(n4)[C@@H](C)[C@H](C)OC5=O)ncc23)C1 [Compound 19]	0.2	41.1
C[C@@H]1c2nc(Nc3cc4c(C(C)(C)N)cnc(OC5CC(C)(C(=O)N(C)C)C5)c4cn3)ccc2C(=O)OC1(C)C (single isomer, unassigned) [Compound 81]	0.16	71.2
CC[C@@H](N)c1ccc(OC2CN(C(=O)C3CC3)C2)c2cnc(Nc3ccc4c(n3)[C@@H](C)C(C)(C)OC4=O)cc12 (single isomer, unassigned) [Compound 40, (R)-2-((5-((R)-1-Aminopropyl)-8-((1-(cyclopropanecarbonyl)azetidin-3-yl)oxy)isoquinolin-3-yl)amino)-7,7,8-trimethyl-7,8-dihydro-5H-pyrano[4,3-b]pyridin-5-one or (R)-2-((5-((S)-1-aminopropyl)-8-((1-(cyclopropanecarbonyl)azetidin-3-yl)oxy)isoquinolin-3-yl)amino)-7,7,8-trimethyl-7,8-dihydro-5H-pyrano[4,3-b]pyridin-5-one]	0.19	160
C[C@@H]1c2nc(Nc3cc4c(C(C)(C)N)cnc(OC5CN(C(=O)C6COC6)C5)c4cn3)ccc2C(=O)OC1(C)C [Compound 77]	0.36	47.8
C[C@@H]1OC(=O)c2ccc(Nc3cc4c(C(C)(C)N)ccc(OC5CN(C(=O)C6CC6)C5)c4cn3)nc2[C@H]1C [Compound 29]	0.12	11
C[C@@H]1c2nc(Nc3cc4c(C(C)(C)N)cnc(O[C@@H]5CN(C(=O)[C@@H]6C[C@@H]6F)[C@H]5C)c4cn3)ccc2C(=O)OC1(C)C [Compound 14]	0.19	15.3
C[C@@H]1c2nc(Nc3cc4c(C(C)(C)N)cnc(OC5CN(C(=O)N6CCC6)C5)c4cn3)ccc2C(=O)OC1(C)C [Compound 72]	0.21	30.5
C[C@@H]1c2nc(Nc3cc4c(C(C)(C)N)cnc(OC5CN(C(=O)N(C)C)C5)c4cn3)ccc2C(=O)OC1(C)C [Compound 57]	0.13	21.1
COC[C@@](C)(N)c1cnc(OC2CN(C(=O)C3CC3)C2)c2cnc(Nc3ccc4c(n3)[C@@H](C)C(C)(C)OC4=O)cc12 [Compound 16]	0.47	–
C[C@@H]1c2nc(Nc3cc4c(C(C)(C)N)cnc(NC5CN(C(=O)C6CC6)C5)c4cn3)ccc2C(=O)OC1(C)C [Compound 42]	0.33	–
CC[C@@](C)(N)c1cnc(OC2CN(C(C)=O)C2)c2cnc(Nc3ccc4c(n3)[C@@H](C)C(C)(C)OC4=O)cc12 [Compound 32]	0.17	–
C[C@@H]1c2nc(Nc3cc4c(C(C)(C)N)cnc(OC5CN(C(=O)C6(O)CC6)C5)c4cn3)ccc2C(=O)OC1(C)C [Compound 78]	0.43	–
C[C@@H]1OC(=O)c2ccc(Nc3cc4c(C(C)(C)N)cnc(OC5CN(C(=O)C6(C)CC6)C5)c4cn3)nc2[C@H]1C [Compound 52]	0.18	–
C[C@@H]1OC(=O)c2ccc(Nc3cc4c(C(C)(C)N)cnc(O[C@@H]5CCN(C(=O)C6CC6)C5)c4cn3)nc2[C@H]1C [Compound 51]	0.36	–
C[C@@H]1OC(=O)c2ccc(Nc3cc4c(C(C)(C)N)cnc(OC5CN(C(=O)[C@@H]6C[C@@H]6C)C5)c4cn3)nc2[C@H]1C [Compound 46]	0.23	–

Next, values leading:

IC50 (MAP4K1 (HPK1)) [nM]	EC50 (Primary T Cell) [nM]	Compound
0.22	19.8	C[C@@H]1c2nc(Nc3cc4c(C(C)(C)N)cnc(OC5CN(C(=O)N6CC(F)C6)C5)c4cn3)ccc2C(=O)OC1(C)C [Compound 95]
0.25	29.4	CCC(=O)N1CC(Oc2ncc([C@](C)(N)COC)c3cc(Nc4ccc5c(n4)[C@@H](C)[C@H](C)OC5=O)ncc23)C1 [Compound 120]
0.1	60.8	CCC(=O)N1CC(Oc2ncc([C@](C)(N)COC)c3cc(Nc4ccc5c(n4)[C@@H](C)C(C)(C)OC5=O)ncc23)C1 [Compound 123]
0.24	10.2	CCC[C@@](C)(N)c1ncc(OC2CN(C(C)=O)C2)c2cnc(Nc3ccc4c(n3)CC(C)(C)OC4=O)cc12 (single isomer, unassigned) [Compound 112]
0.2	90	COC[C@@](C)(N)c1cnc(O[C@@H]2CN(C(C)=O)[C@H]2C)c2cnc(Nc3ccc4c(n3)[C@@H](C)[C@H](C)OC4=O)cc12 [Compound 119]
0.1	5.4	CCCC(C)(N)c1cnc(OC2CN(C(C)=O)C2)c2cnc(Nc3ccc4c(n3)[C@@H](C)C(C)(C)OC4=O)cc12 (single isomer, unassigned) [Compound 115]
0.13	17.8	C[C@@H]1c2nc(Nc3cc4c(C(C)(C)N)cnc(OC5CN(C(=O)N6CC(F)(F)C6)C5)c4cn3)ccc2C(=O)OC1(C)C [Compound 101]
0.26	–	COC[C@@](C)(N)c1cnc(O[C@H]2C[C@H](C(=O)N(C)C)C2)c2cnc(Nc3ccc4c(n3)[C@@H](C)[C@H](C)OC4=O)cc12 [Compound 124]
0.21	–	CO[C@H](C)C(=O)N1CC(Oc2ncc(C(C)(C)N)c3cc(Nc4ccc5c(n4)[C@@H](C)C(C)(C)OC5=O)ncc23)C1 (single isomer, unassigned) [Compound 88]
0.17	–	COC1(C(=O)N2CC(Oc3ncc(C(C)(C)N)c4cc(Nc5ccc6c(n5)[C@@H](C)C(C)(C)OC6=O)ncc34)C2)CC1 [Compound 93]
1.13	–	CC(=O)N1CCC[C@@H]1COc1ncc(C(C)(C)N)c2cc(Nc3ccc4c(n3)[C@@H](C)C(C)(C)OC4=O)ncc12 [Compound 116]
0.2	–	C[C@@H]1c2nc(Nc3cc4c(C(C)(C)N)cnc(OC[C@H]5C[C@@H]5C(=O)N(C)C)c4cn3)ccc2C(=O)OC1(C)C (single isomer, unassigned) [Compound 105]
0.62	–	CC(=O)N1CC(Oc2ncc(C(C)(C)N)c3cc(Nc4ccc5c(n4)C(C)(C)COC5=O)ncc23)C1 [Compound 110]
0.24	–	C[C@@H]1OC(=O)c2ccc(Nc3cc4c(C(C)(C)N)cnc(O[C@H]5C[C@@H](C(=O)N6CC(F)C6)C5)c4cn3)nc2[C@H]1C [Compound 84]
2.86	–	CC(=O)N1CC(Oc2ncc(C(C)(C)N)c3cc(Nc4ccc5c(n4)CCOC5=O)ncc23)C1 [Compound 108]
